From publication PMC10707934, “Design and Synthesis of Novel α-Methylchalcone Derivatives, Anti-Cervical Cancer Activity, and Reversal of Drug Resistance in HeLa/DDP Cells” (Molecules, 2023) come the findings set out here.

For one assay, the system named is C33A cells. Briefly: MTT anti-proliferation assay, C33A. Conditions: 48 h, mean ± SD. The format is cell-based, human. As to the method:
(§1) All cell types, at a volume of 200 µL per well, were inoculated in 96-well plates at a density of 2.5 × 10^4 cells / mL and cultured for 24 h in an incubator with 5% CO2 at 37 °C. The old culture medium was replaced with 200 µL of fresh medium per well containing positive compounds, at concentrations of 1, 6.25, 12.5, 25, 50, and 100 μM. After 48 h of culture, 20 µL per well of 5 mg·mL^−1 MTT solution was added. After 4 h of culture, the old solution was discarded, and 150 µL per well of DMSO solution was added. Using an enzyme labeler (Thermo Fisher Scientific, Multiskan GO, Waltham, MA, USA), the plates were shaken for 10 min, OD values were determined at 490 nm, and the inhibition rate was calculated. Non-linear regression fitting of the cell growth rate was carried out using SPSS 23.0, and the IC50 of the compound was calculated. The inhibition rate was calculated using the formula: [(ODempty − ODtest)/(ODempty − ODnegative group)] × 100%, (ODempty blank group absorbance, ODtest absorbance of administration group, ODnegative group without cell culture medium). Each group contained six compound holes, and the experimental results averaged three trials. Complete medium containing only cells was used as the blank control; a complete medium without cells as was used as the negative control; and cisplatin, paclitaxel, and adriamycin were used as the positive controls. The concentration gradient was the same as that used for compounds 3a–3p.
In general terms: Tetrazolium dyes change colour on reduction, which living cells bring about.

The subject of assay [1] is human cervical epithelial cells H8. Briefly: MTT toxicity assay, normal cervical epithelial cells H8. Conditions: 48 h, mean ± SD. The format is cell-based. As to the method:
as §1

Assay [2] concerns HeLa/DDP cells. The experiment in a line: Annexin V-FITC/PI pro-apoptosis assay, HeLa/DDP. The format is cell-based, human. As to conditions: 24 h. As to the method: Cell fluid (2 mL per well) at a concentration of 1.5 × 10^5 cells / mL was added to a 6-well plate and cultured in a cell incubator with 5% CO2 at 37 °C for 24 h. The old solution was discarded; 2 mL of the medium containing compound 3k was added to each well at a concentration gradient of 2.5, 5, and 10 μM; and the experiment was repeated three times at each concentration. Complete medium containing only cells was used as a blank control group, and 20 μM of cisplatin injection and chalcone was used as a positive control. Cells were harvested following a 24 h incubation period, adhering to the guidelines provided with the BD kit (BD Biosciences Pharmingen, 556547, 10975 Torreyana Road, San Diego, CA, USA). Subsequently, the cells were subjected to staining in a light-restricted environment at ambient temperature for a duration of 15 min, followed by filtration and analysis via flow cytometry.
The pro-apoptotic experiments of compound 3k, cisplatin, and chalcone on HeLa/DDP were performed in the same way as in Section 3.3.3. Western Blotting Analysis in the same way as in Section 3.3.4.

The test system of assay [3] is HeLa cells. The experiment in a line: Cell cycle experiment (PI flow cytometry), HeLa. As to conditions: 24 h. The format is cell-based, human. As to the method:
A 2 mL volume of cell fluid per well at a concentration of 1 × 10^6 cells / mL was inoculated into a 6-well plate and cultured for 24 h. After removing the old solution, 2 mL of the cell culture medium containing 3k was added to each well, and each well was exposed for 24 h to a concentration gradient of 2.5, 5, and 10 μM. The experiment was repeated three times for each concentration. Complete culture medium containing only cells was used as the blank control group, and 20 μM cisplatin and chalcone injection were used as the positive control group. After 24 h of treatment, the cells were collected in a 15 mL centrifuge tube and fixed with 75% ethanol at 4 °C for 24 h. A 400 µL volume of PI/RNase staining buffer (BD Biosciences Pharmingen, 550825, 10975 Torreyana Road, San Diego, CA, USA) was uniformly dispersed and subjected to staining for 15 min at room temperature […]. The sample was subsequently filtered and analyzed using up-flow cytometry (BD, LSRFortessa, New York, NY, USA).
(In general: Flow cytometry measures light scatter and fluorescence of single cells or particles in a stream.)

Assay [4] has as its system HeLa cells. The experiment in a line: Transwell Matrigel invasion assay, HeLa. The format is cell-based, human. As to the method:
(§2) The Transwell ([…], Corning Incorporated, New York, NY, USA) was precoated using 50 μL Matrigel for 5 h at 37 °C to achieve solidification. HeLa cells was collected and suspended in a serum-free medium containing varying concentrations (0, 2.5, 5, and 10 μM) of compound 3k, along with 20 μM cisplatin and chalcone. These cell suspensions were then added to the upper wells of a permeabilization chamber at a density of 5 × 10^5 cells/mL. In the lower wells, 600 μL of DMEM containing 10% FBS was added, which had been prepared using 50 μL of Matrigel (diluted 1:8 with serum-free medium from Corning/BD Biosciences). After 24 h of incubation at 37 °C, the invasion cells were fixed using 4% paraformaldehyde and stained using 0.1% crystal violet for 30 min. Then, the chambers were washed using PBS and left to dry. Images were photographed using an inverted fluorescence microscope (Leica Instruments Co., Ltd., Microsystems CMS GmbH, Weizler, Hesse, Germany) and counted using Image J software (V1.8.0.112) for three independent fields randomly.

For assay [5], the system named is HeLa/DDP cells. The experiment in a line: Transwell Matrigel invasion assay, HeLa/DDP. The format is cell-based, human. As to conditions: 24 h, control 399. As to the method:
as §2
The experimental methods for the effects of compound 3k, cisplatin, and chalcone on HeLa/DDP cell invasion and migration were the same as in Section 3.3.6.

Assay [6] concerns HeLa cells. The experiment in a line: MTT anti-proliferation assay, HeLa. The format is cell-based, human. Conditions: 48 h, mean ± SD. The gist of the method: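 HeLa and cisplatin-resistant HeLa/DDP cells were seeded at 2.5 × 10^4 cells/mL, cultured 24 h, then exposed to compounds at 1–100 μM for 48 h. MTT was added for 4 h, formazan dissolved in DMSO, and OD read at 490 nm. IC50 was derived by non-linear regression of inhibition rate, averaged over three trials.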

For orientation: IC50 means the concentration that inhibits the measured activity by half. Regarding `N.N.[Cl][Pt][Cl]` [Cisplatin, cisplatin, reference compound], the half-maximal inhibitory concentration (IC50) worked out at 6.05 ± 1.15 µM in the assay with C33A cells, 25.2 ± 1.29 µM in assay [1] and 13 ± 1.82 µM with HeLa cells [6]. Moreover, the pro-apoptotic rate in the assay with HeLa/DDP cells [2] (20 μM) was 15.0%. The “percentage of cells in the G0/G1 phase” value in the assay with HeLa cells [3] (20 μM, control 52.1%) is given as 73.93%. Besides, the “number of cells undergoing invasion” value in the assay on HeLa cells [4] (24 h, 20 μM) is 237. In addition, the “number of invasion cells” value with HeLa/DDP cells [5] (20 μM) stood at 301.
For the compound `COc1ccc(/C=C(\C)C(=O)c2ccc(Cl)c(Cl)c2)cc1OC` [Compound 3k, (E)-1-(3,4-Dichlorophenyl)-3-(3,4-dimethoxyphenyl)-2-methylprop-2-en-1-one], the IC50 was 12.1 ± 2.44 µM with C33A cells (Homo sapiens, C-33-A); over 100 µM in assay [1] (Homo sapiens, Epithelial cell); 9.05 ± 0.53 µM in the assay with HeLa cells [6] (Homo sapiens). For the same compound, the pro-apoptotic rate came to 36.7% in the assay with HeLa/DDP cells [2] (2.5 μM), 46.3% in the assay with HeLa/DDP cells [2] (5 μM) and 63.7% in the assay on HeLa/DDP cells [2] (10 μM). The “blocking rate at the G2/M phase” value was found to be 14.04% with HeLa cells [3] (2.5 μM), 22.84% with HeLa cells [3] (5 μM) and 40.18% in the assay on HeLa cells [3] (10 μM). Also, the “number of cells undergoing invasion compared to the control group” value in the assay on HeLa cells [4] (24 h, 2.5, 5, and 10 μM) is on record as “significant decrease in the number of cells undergoing invasion”. The figures for the “number of invasion cells” value in the assay on HeLa/DDP cells [5] (2.5 μM), in the assay on HeLa/DDP cells [5] (5 μM) and with HeLa/DDP cells [5] (10 μM) were 293, 237 and 90, respectively.
